Reference: patent US20260337177A1, “TEAD CORE INHIBITORS FOR CANCER THERAPEUTICS” (University of Florida Research Foundation, Incorporated, priority 2023, published 2026)
Where two headings read alike, the source gives them in different places.

Assays:
[1] = system: TEADs; test: TEAD-specific 8×GTIIC-luciferase reporter assay; format: cell-based; conditions: for inhibition at 10 µM: 8×GTIIC-luciferase, read-out: Luciferase reporter assay inhibitory rate
Experimental: A series of compounds featuring a chloromethyl ketone moiety were synthesized (Schemes 1-4). The inhibitory rate of this series of compounds was tested using 8×GTIIC-luciferase reporter assay at 10 μM.
Next, the inhibition of TEAD transcription activity of compounds was tested varying the dosage using the 8×GTIIC-luciferase reporter assay. […] The aim was to determine whether its inhibition of TEAD transcription can lead to downregulation of the YAP-TEAD target genes. CTGF is one of the best characterized (bona fide) target gene of YAP and TAZ.
To further investigate the mechanism of the inhibitory effect of compounds in Huh7 cells, TEADs specific luciferase reporter assays were performed with compounds 22 and 12 at several concentrations. […] TEAD downstream gene expression patterns were evaluated in liver cancer cells Huh7, which has been evidenced with relative high expression of YAP and TEAD2.
HEK 293T cells were plated at 2×10^4 cells/well in a 96 well microplate and were transfected with 50 ng of 8×GTIIC-luciferase plasmid (Addgene #34615) and 0.5 ng of pRL-CMV (Promega #E226A) by using lipofectamine 3000 (Life Technologies #L3000). The 8×GTIIc-luciferase reporter is a Yap/Taz-activity reporter containing eight TEAD consensus binding sequences. After 6 h, transfected cells were treated with various concentrations of compounds or DMSO control. Luciferase signals were measured using the Dual Luciferase Reporter Assay System (Promega, E1960) according to the manufacturer's instructions. Experiments were performed in triplicate and repeated at least three times.

[2] = system: AML12 cells; test: AML12 normal liver cell growth inhibition (CCK8); format: cell-based; conditions: for Inhibitory rate, AML12 (inhibitory percentage of AML12 cell growth): 10 μM, 3 days
[3] = system: Huh7 cells; test: Huh7 cell proliferation assay (CCK8); format: cell-based, human; conditions: Homo sapiens
Experimental: CCK8 assay kit was used to determine antiproliferative activity of synthesized compounds against Huh7 cell line. First, Huh7 cells were seeded into 96-well plates at a density of 3000 cells/well and incubated overnight. Cells were then co-incubated with compounds at 8 concentrations for 72 h. Then, the cell proliferation was determined by the CCK8 kit according to the standard protocol. Experiments were performed in triplicate.

[4] = Huh-7, 72 h, 3 days, CCK8, mean ± SD of three independent experiments, read-out: Cell proliferation assay IC50, Huh7

Compound | IC50 [3, 4] [µM] | IC50 ([3]; Huh-7, Table 3 column is in μM, read-out: Huh7 cell growth inhibition / proliferation IC50) [µM] | inhibition at 10 µM [1] [%] | Inhibitory rate, AML12 (inhibitory percentage of AML12 cell growth) [2] [%] | TEAD transcription inhibition, luciferase reporter ([1]; varying dosage, FIGS. 3A-3B) | Toxicity towards normal liver cell line AML12 [2]
O=C(CCl)c1c[nH]c2cc(Cl)c(OCc3ccccc3)cc12 [Compound 1, 1-(5-(benzyloxy)-6-chloro-1H-indol-3-yl)-2-chloroethan-1-one] | 2.7 ± 0.2 |  | 74.6 | 36.2 |  | 
O=C(CCl)c1c[nH]c2cc(Cl)c(OCc3cccc4ccccc34)cc12 [Compound 3, 2-chloro-1-(6-chloro-5-(naphthalen-1-ylmethoxy)-1H-indol-3-yl)ethan-1-one] | 1.6 ± 0.3 |  | 69.4 | 50.3 |  | 
COc1cc2[nH]cc(C(=O)CCl)c2cc1OCc1ccccc1 [Compound 4, 1-(5-(benzyloxy)-6-methoxy-1H-indol-3-yl)-2-chloroethan-1-one] | 3.8 ± 0.4 |  | 53.7 | 46.1 |  | 
COc1cc2[nH]cc(C(=O)CCl)c2cc1OCc1ccc2ccccc2c1 [Compound 5, 2-chloro-1-(6-methoxy-5-(naphthalen-2-ylmethoxy)-1H-indol-3-yl)ethan-1-one] | 2.4 ± 0.5 |  | 93.9 | 77.4 | potent inhibition activity | high toxicity
COc1cc2[nH]cc(C(=O)CCl)c2cc1OCc1cccc2ccccc12 [Compound 6, 2-chloro-1-(6-methoxy-5-(naphthalen-1-ylmethoxy)-1H-indol-3-yl)ethan-1-one] | 2.5 ± 0.8 |  | 64.5 | 62.1 |  | 
O=C(CCl)c1c[nH]c2ccc(OCc3ccc4ccccc4c3)cc12 [Compound 7, 2-chloro-1-(5-(naphthalen-2-ylmethoxy)-1H-indol-3-yl)ethan-1-one] | > 20 |  | 5.3 |  |  | 
O=C(CCl)c1c[nH]c2ccc(OCc3ccccc3)cc12 [Compound 8, 1-(5-(benzyloxy)-1H-indol-3-yl)-2-chloroethan-1-one] | 10.5 ± 0.9 |  | 20.5 |  |  | 
N#C/C(=C\c1c[nH]c2cc(Cl)c(OCc3cccc4ccccc34)cc12)C(N)=O [Compound 18, (E)-3-(6-chloro-5-(naphthalen-1-ylmethoxy)-1H-indol-3-yl)-2-cyanoacrylamide] |  |  | 51.3 | 70.3 |  | 
N#C/C(=C\c1c[nH]c2cc(Cl)c(OCC3CCC(F)(F)CC3)cc12)C(N)=O [Compound 19, (E)-3-(6-chloro-5-((4,4-difluorocyclohexyl)methoxy)-1H-indol-3-yl)-2-cyanoacrylamide] | 5.3 ± 0.5 |  | 60.1 | 30.1 |  | 
N#C/C(=C\c1c[nH]c2cc(Cl)c(OCc3cccc(C(F)(F)F)c3)cc12)C(N)=O [Compound 21, 3-(6-chloro-5-((3-(trifluoromethyl)benzyl)oxy)-1H-indol-3-yl)-2-cyanoacrylamide] |  |  | 59.7 | 97.1 |  | 
O=C(CCl)c1c[nH]c2cc(Cl)c(OCc3ccc(C(F)(F)F)cc3)cc12 [Compound 23, 2-chloro-1-(6-chloro-5-((4-(trifluoromethyl)benzyl)oxy)-1H-indol-3-yl)ethan-1-one] | 16.9 |  |  |  |  | 
O=C(CCl)c1c[nH]c2cc(Cl)c(OCc3ccc(C(F)(F)F)c(F)c3)cc12 [Compound 24, 2-chloro-1-(6-chloro-5-((3-fluoro-4-(trifluoromethyl)benzyl)oxy)-1H-indol-3-yl)ethan-1-one] | 1.8 |  |  |  |  | 

Second part, led by results:

IC50 [3, 4] [µM] | IC50 ([3]; Huh-7, Table 3 column is in μM, read-out: Huh7 cell growth inhibition / proliferation IC50) [µM] | Compound | inhibition at 10 µM [1] [%] | Inhibitory rate, AML12 (inhibitory percentage of AML12 cell growth) [2] [%] | TEAD transcription inhibition, luciferase reporter ([1]; varying dosage, FIGS. 3A-3B) | Toxicity towards normal liver cell line AML12 [2]
30.2 ± 2.5 |  | C=CC(=O)NCc1c[nH]c2cc(Cl)c(OCc3ccc4ccccc4c3)cc12 [Compound 9, N-((6-chloro-5-(naphthalen-2-ylmethoxy)-1H-indol-3-yl)methyl)acrylamide] | 1.5 | 0 |  | 
14.4 ± 1.2 |  | C=CC(=O)NCc1c[nH]c2cc(Cl)c(OCc3cccc4ccccc34)cc12 [Compound 10, N-((6-chloro-5-(naphthalen-1-ylmethoxy)-1H-indol-3-yl)methyl)acrylamide] | 10.6 | 0 |  | 
> 50 |  | C=CC(=O)NCc1c[nH]c2cc(Cl)c(OCc3ccccc3)cc12 [Compound 11, N-((5-(benzyloxy)-6-chloro-1H-indol-3-yl)methyl)acrylamide] |  | 0 |  | 
5.7 ± 1.3 |  | O=C(CCl)NCc1c[nH]c2cc(Cl)c(OCc3ccc4ccccc4c3)cc12 [Compound 13, 2-chloro-N-((6-chloro-5-(naphthalen-2-ylmethoxy)-1H-indol-3-yl)methyl)acetamide] | 67.4 | 43.4 |  | 
0.8 ± 0.2 | 0.8 | O=C(CCl)NCc1c[nH]c2cc(Cl)c(OCc3cccc4ccccc34)cc12 [Compound 14, 2-chloro-N-((6-chloro-5-(naphthalen-1-ylmethoxy)-1H-indol-3-yl)methyl)acetamide] | 81.5 | 54.1 |  | significant cytotoxicity
8.3 ± 0.8 |  | O=C(CCl)NCc1c[nH]c2cc(Cl)c(OCc3cccc(C(F)(F)F)c3)cc12 [Compound 15, 2-chloro-N-((6-chloro-5-((3-(trifluoromethyl)benzyl)oxy)-1H-indol-3-yl)methyl) acetamide] | 47.9 | 41.1 |  | 
> 50 |  | N#C/C(=C\c1c[nH]c2cc(Cl)c(OCc3ccccc3)cc12)C(N)=O [Compound 16, (E)-3-(5-(benzyloxy)-6-chloro-1H-indol-3-yl)-2-cyanoacrylamide] |  | 0 |  | 
4.1 ± 0.6 |  | N#C/C(=C\c1c[nH]c2cc(Cl)c(OCc3ccc4ccccc4c3)cc12)C(N)=O [Compound 17, (E)-3-(6-chloro-5-(naphthalen-2-ylmethoxy)-1H-indol-3-yl)-2-cyanoacrylamide] | 47.3 | 60.2 |  | 
68.7 ± 5.4 |  | N#C/C(=C\c1c[nH]c2cc(Cl)c(OCc3ccc4ccccc4n3)cc12)C(N)=O [Compound 20, (E)-3-(6-chloro-5-(quinolin-2-ylmethoxy)-1H-indol-3-yl)-2-cyanoacrylamide] |  | 0 |  | 
2 ± 0.7 |  | C=C(CN(C)C)C(=O)NCc1c[nH]c2cc(Cl)c(OCc3ccccc3)cc12 [Compound 25, N-((5-(benzyloxy)-6-chloro-1H-indol-3-yl)methyl)-2-((dimethylamino)methyl) acrylamide] | 71.8 | 37.2 |  | 
